Laboratory results as given in US9580449B2, “Compositions and methods for the production of pyrimidine and pyridine compounds with BTK inhibitory activity” (Merck Patent GmbH, priority 2011, dated 2017).

What was measured:
PBMC = assay: Time Dependent PBMC IC50 assay; assay type: cell-based
Protocol: Compounds described by embodiments of the present invention were assayed using a time dependent PMBC assay.

full-length human BTK = full-length human BTK (Homo sapiens (Human), UniProt Q06187); assay: BTK IC50 enzyme assay (microfluidic off-chip mobility shift kinase assay); assay type: biochemical; conditions: incubated for 90 min. at 27 C; read-out: Time Dependent BTK Enzyme Assay IC50
Method in brief: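 Off-chip microfluidic mobility shift assay on full-length human BTK; substrate-to-product conversion measured by charge/mass separation of phosphorylated peptide after reaction stop.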

Chain of full-length human BTK (Q06187 whole entry): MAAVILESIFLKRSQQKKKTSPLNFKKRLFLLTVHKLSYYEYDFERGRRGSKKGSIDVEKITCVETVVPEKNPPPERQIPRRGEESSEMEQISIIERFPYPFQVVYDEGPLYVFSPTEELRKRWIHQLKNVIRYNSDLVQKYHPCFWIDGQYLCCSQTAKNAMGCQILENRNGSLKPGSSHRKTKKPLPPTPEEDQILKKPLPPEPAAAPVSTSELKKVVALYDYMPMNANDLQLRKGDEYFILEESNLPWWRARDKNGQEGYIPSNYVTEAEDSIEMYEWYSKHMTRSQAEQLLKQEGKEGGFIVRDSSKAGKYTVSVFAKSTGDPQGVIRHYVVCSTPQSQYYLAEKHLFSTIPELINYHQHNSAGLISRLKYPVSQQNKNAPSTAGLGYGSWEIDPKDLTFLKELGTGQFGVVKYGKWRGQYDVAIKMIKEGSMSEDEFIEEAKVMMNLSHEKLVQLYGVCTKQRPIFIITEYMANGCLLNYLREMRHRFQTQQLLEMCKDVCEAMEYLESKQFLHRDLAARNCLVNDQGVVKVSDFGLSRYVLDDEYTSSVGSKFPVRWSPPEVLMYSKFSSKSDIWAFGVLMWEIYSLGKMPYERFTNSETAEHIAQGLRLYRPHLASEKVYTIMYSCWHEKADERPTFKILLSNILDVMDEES

IC50 (full-length human BTK) [nM] | SMILES | IC50 (PBMC) [nM]
– | C=CC(=O)N1CC[C@@H](Nc2ncnc(N)c2-c2ccc(Oc3ccccc3)cc2)C1 [A1, (R)-1-(3-((6-amino-5-(4-phenoxyphenyl)pyrimidin-4-yl)amino)pyrrolidin-1-yl)prop-2-en-1-one] | < 1000
– | C=CC(=O)N1CCC(CNc2ncnc(N)c2-c2ccc(Oc3ccccc3)cc2)CC1 [A250, 1-(4-(((6-amino-5-(4-phenoxyphenyl)pyrimidin-4-yl)amino)methyl)piperidin-1-yl)prop-2-en-1-one] | < 1000
> 1000 | C=CC(=O)N1CCC(CNc2ncnc(N)c2-c2ccc(Oc3ccccc3)nc2)CC1 [A168, 1-(4-(((6-amino-5-(6-phenoxypyridin-3-yl)pyrimidin-4-yl)amino)methyl)piperidin-1-yl)prop-2-en-1-one] | > 1000
– | C=CC(=O)N1CC[C@H](CNc2ncnc(N)c2-c2ccc(Oc3ccccc3)cc2)C1 [A4, (R)-1-(3-(((6-amino-5-(4-phenoxyphenyl)pyrimidin-4-yl)amino)methyl)pyrrolidin-1-yl)prop-2-en-1-one] | < 1000
< 100 | C=CC(=O)N[C@H]1C[C@@H](Nc2ncnc(N)c2-c2ccc(Oc3ccccc3)cc2)C1 [A118] | < 1000
– | C=CC(=O)N1CC[C@H](COc2ncnc(N)c2-c2ccc(Oc3ccccc3)cc2)C1 [A26, (S)-1-(3-(((6-amino-5-(4-phenoxyphenyl)pyrimidin-4-yl)oxy)methyl)pyrrolidin-1-yl)prop-2-en-1-one] | < 1000
< 100 | C=CC(=O)Nc1cccc(Oc2ncnc(N)c2-c2cnn(Cc3cccc(F)c3)c2)c1 [A67, N-(3-((6-amino-5-(1-(3-fluorobenzyl)-1H-pyrazol-4-yl)pyrimidin-4-yl)oxy)phenyl)acrylamide] | < 1000
< 100 | C=CC(=O)Nc1cccc(Oc2ncnc(N)c2-c2ccc(Oc3ccccc3)cc2)c1 [A242, N-(3-((6-amino-5-(4-phenoxyphenyl)pyrimidin-4-yl)oxy)phenyl)acrylamide] | < 1000
< 100 | CN(C)C/C=C/C(=O)Nc1cccc(Oc2ncnc(N)c2-c2ccc(Oc3ccccc3)cc2)c1 [A252, (E)-N-(3-((6-amino-5-(4-phenoxyphenyl)pyrimidin-4-yl)oxy)phenyl)-4-(dimethylamino)but-2-enamide] | < 1000
< 100 | C#CC(=O)N[C@@H]1CCC[C@H](Nc2ncnc(N)c2-c2ccc(Oc3ccccc3)cc2)C1 (relative stereo) [A64, N-(cis-3-((6-amino-5-(4-phenoxyphenyl)pyrimidin-4-yl)amino)cyclohexyl)propiolamide] | < 1000
< 100 | C#CC(=O)N1CCC2(CC(Nc3ncnc(N)c3-c3ccc(Oc4ccccc4)cc3)C2)C1 (centres unmarked) [A115, 1-(2-((6-amino-5-(4-phenoxyphenyl)pyrimidin-4-yl)amino)-6-azaspiro[3.4]octan-6-yl)prop-2-yn-1-one] | > 1000
< 100 | C=CC(=O)N1CCCCC(Nc2ncnc(N)c2-c2ccc(Oc3ccccc3)cc2)C1 (centres unmarked) [A52, 1-(3-((6-amino-5-(4-phenoxyphenyl)pyrimidin-4-yl)amino)azepan-1-yl)prop-2-en-1-one] | < 1000
– | C=CS(=O)(=O)N1CCC(CNc2ncnc(N)c2-c2ccc(Oc3ccccc3)cc2)CC1 [A10, 5-(4-phenoxyphenyl)-N4-((1-(vinylsulfonyl)piperidin-4-yl)methyl)pyrimidine-4,6-diamine] | < 1000
< 100 | C=CC(=O)N1C[C@H](Nc2ncnc(N)c2-c2ccc(Oc3ccccc3)cc2)[C@@H](O)C1 (relative stereo) [A75, 1-(trans-3-((6-amino-5-(4-phenoxyphenyl)pyrimidin-4-yl)amino)-4-hydroxypyrrolidin-1-yl)prop-2-en-1-one] | < 1000
< 100 | C=CC(=O)Nc1cccc(-c2cnc(N)nc2Oc2ccc(Oc3ccccc3)cc2)c1 [A306, N-(3-(2-amino-4-(4-phenoxyphenoxy)pyrimidin-5-yl)phenyl)acrylamide] | < 1000
< 100 | C=CC(=O)N1CCC2(CC(Nc3ncnc(N)c3-c3ccc(Oc4ccccc4)cc3)C2)C1 (centres unmarked) [A113, 1-(2-((6-amino-5-(4-phenoxyphenyl)pyrimidin-4-yl)amino)-6-azaspiro[3.4]octan-6-yl)prop-2-en-1-one] | < 1000
– | C=CC(=O)N1CCC[C@@H](Nc2ncnc(N)c2-c2ccc(Oc3ccccc3)cc2)C1 [A247, (R)-1-(3-((6-amino-5-(4-phenoxyphenyl)pyrimidin-4-yl)amino)piperidin-1-yl)prop-2-en-1-one] | < 1000
– | C=CC(=O)N1CCC(CNc2ncnc(N)c2-c2ccc(Oc3ccccc3)cc2)C1 (centres unmarked) [A262, 1-(3-(((6-amino-5-(4-phenoxyphenyl)pyrimidin-4-yl)amino)methyl)pyrrolidin-1-yl)prop-2-en-1-one] | < 1000
– | C=CC(=O)N1CCCC(Nc2ncnc(N)c2-c2ccc(Oc3ccccc3)cc2)C1 (centres unmarked) [A253, 1-(3-((6-amino-5-(4-phenoxyphenyl)pyrimidin-4-yl)amino)piperidin-1-yl)prop-2-en-1-one] | < 1000

IC50 (full-length human BTK) [nM] | SMILES | IC50 (PBMC) [nM]
< 100 | CC#CC(=O)N1CCC(CNc2ncnc(N)c2-c2ccc(Oc3ccccc3)cc2)CC1 [A336, 1-(4-(((6-amino-5-(4-phenoxyphenyl)pyrimidin-4-yl)amino)methyl)piperidin-1-yl)but-2-yn-1-one] | < 1000
< 100 | C=CC(=O)Nc1cccc(Nc2ncnc(N)c2-c2cnn(Cc3ccccc3)c2)c1 [A70, N-(3-((6-amino-5-(1-benzyl-1H-pyrazol-4-yl)pyrimidin-4-yl)amino)phenyl)acrylamide] | < 1000
– | C=CC(=O)Nc1cccc(Oc2ncncc2-c2ccc(Oc3ccccc3)cc2)c1 [A255, N-(3-((5-(4-phenoxyphenyl)pyrimidin-4-yl)oxy)phenyl)acrylamide] | < 1000
< 100 | C=CC(=O)N1CC2(CC(Oc3ncnc(N)c3-c3cnn(Cc4ccccc4)c3)C2)C1 [A106, 1-(6-((6-amino-5-(1-benzyl-1H-pyrazol-4-yl)pyrimidin-4-yl)oxy)-2-azaspiro[3.3]heptan-2-yl)prop-2-en-1-one] | > 1000
– | C=CC(=O)N1CCC(CNc2ncnc(N)c2-c2ccc(Oc3cccc(F)c3)cc2)CC1 [A34, 1-(4-(((6-amino-5-(4-(3-fluorophenoxy)phenyl)pyrimidin-4-yl)amino)methyl)piperidin-1-yl)prop-2-en-1-one] | < 1000
< 100 | C=CC(=O)N1CC2(CC(Oc3ncnc(N)c3-c3ccc(Oc4ccncc4)cc3)C2)C1 [A114, 1-(6-((6-amino-5-(4-(pyridin-4-yloxy)phenyl)pyrimidin-4-yl)oxy)-2-azaspiro[3.3]heptan-2-yl)prop-2-en-1-one] | > 1000
< 100 | C=CC(=O)Nc1cccc(-c2c(N)ncnc2Oc2ccc(Oc3ccccc3)cc2)c1 [A245, N-(3-(4-amino-6-(4-phenoxyphenoxy)pyrimidin-5-yl)phenyl)acrylamide] | < 1000
– | C=CC(=O)N1CC[C@@H](COc2ncnc(N)c2-c2ccc(Oc3ccccc3)cc2)C1 [A38, (R)-1-(3-(((6-amino-5-(4-phenoxyphenyl)pyrimidin-4-yl)oxy)methyl)pyrrolidin-1-yl)prop-2-en-1-one] | < 1000
– | C=CC(=O)N1CC2(CC(Nc3ncnc(N)c3-c3ccc(Oc4ccccc4)cc3)C2)C1 [A124, 1-(6-((6-amino-5-(4-phenoxyphenyl)pyrimidin-4-yl)amino)-2-azaspiro[3.3]heptan-2-yl)prop-2-en-1-one] | < 1000
< 100 | C=CC(=O)N1CCC(COc2ncncc2-c2ccc(Oc3ccccc3)cc2)CC1 [A6, 1-(4-(((5-(4-phenoxyphenyl)pyrimidin-4-yl)oxy)methyl)piperidin-1-yl)prop-2-en-1-one] | < 1000
< 100 | C=CC(=O)Nc1cccc(Oc2ncnc(N)c2-c2ccc(C(=O)Nc3ccccc3)cc2)c1 [A258, 4-(4-(3-acrylamidophenoxy)-6-aminopyrimidin-5-yl)-N-phenylbenzamide] | > 1000
– | C=CC(=O)N[C@H]1CC[C@@H](Nc2ncnc(N)c2-c2ccc(Oc3ccccc3)cc2)CC1 [A266, N-((1s,4s)-4-((6-amino-5-(4-phenoxyphenyl)pyrimidin-4-yl)amino)cyclohexyl)acrylamide] | < 1000
– | C=CC(=O)N[C@@H]1CCC[C@H](Nc2ncnc(N)c2-c2ccc(Oc3ccccc3)cc2)C1 (relative stereo) [A51, N-(cis-3-((6-amino-5-(4-phenoxyphenyl)pyrimidin-4-yl)amino)cyclohexyl)acrylamide] | < 1000
– | Nc1ncnc(NCC2CCN(C(=O)CCl)CC2)c1-c1ccc(Oc2ccccc2)cc1 [A45, 1-(4-(((6-amino-5-(4-phenoxyphenyl)pyrimidin-4-yl)amino)methyl)piperidin-1-yl)-2-chloroethanone] | < 1000
< 1000 | Nc1ncnc(Oc2cccc(N3CC=CC3=O)c2)c1-c1ccc(Oc2ccccc2)cc1 [A40, 1-(3-((6-amino-5-(4-phenoxyphenyl)pyrimidin-4-yl)oxy)phenyl)-1H-pyrrol-2(5H)-one] | –
< 100 | C=CC(=O)Nc1cccc(Oc2ncnc(N)c2-c2ccc(OCc3ccc(OC)cc3)cc2)c1 [A264, N-(3-((6-amino-5-(4-((4-methoxybenzyl)oxy)phenyl)pyrimidin-4-yl)oxy)phenyl)acrylamide] | –
< 100 | C#CC(=O)N1CC[C@H](CNc2ncnc(N)c2-c2ccc(Oc3ccccc3)cc2)C1 [A61, (R)-1-(3-(((6-amino-5-(4-phenoxyphenyl)pyrimidin-4-yl)amino)methyl)pyrrolidin-1-yl)prop-2-yn-1-one] | –
< 100 | C=CC(=O)Nc1cccc(Oc2ncnc(N)c2-c2cnn(Cc3ccccc3C#N)c2)c1 [A194, N-(3-((6-amino-5-(1-(2-cyanobenzyl)-1H-pyrazol-4-yl)pyrimidin-4-yl)oxy)phenyl)acrylamide] | –

SMILES | IC50 (full-length human BTK) [nM] | IC50 (PBMC) [nM]
Nc1ncnc(NCC2CCN(C(=O)C(O)CO)CC2)c1-c1ccc(Oc2ccccc2)cc1 (centres unmarked) [A56, 1-(4-(((6-amino-5-(4-phenoxyphenyl)pyrimidin-4-yl)amino)methyl)piperidin-1-yl)-2,3-dihydroxypropan-1-one] | > 1000 | –
